Source: ChEMBL document CHEMBL3046319, “PCR-RFLP detection of the E198A mutation conferring resistance to benzimidazoles in field isolates of Monilinia laxa from Greece” (Crop Prot, 2012)
In brackets after ≈: the same amount, converted by molar mass. Activity calls are given as the source filed them. The rule behind the calls is not given here.

Columns and labels:
Monilinia laxa [1] = assay: Fungicidal activity against Monilinia laxa isolate MLBO5 assessed as reduction in mycelial growth rate at 25 degC after 4 days; assay type: functional, organism-based; conditions: isolate MLBO5, 96 h
Monilinia laxa [2] = assay: Fungicidal activity against Monilinia laxa isolate MLA1 assessed as mean mycelial colony diameter at 25 degC after 4 days; assay type: functional
Monilinia laxa [3] = assay: Fungicidal activity against Monilinia laxa isolate MLX5 assessed as mean number of conidia produced in the colony at 25 degC after 12 days by haemocytometer; assay type: functional
Monilinia laxa [4] = assay: Fungicidal activity against Monilinia laxa isolate MLK12 assessed as reduction in mycelial growth rate at 1 to 10 ug/ml at 31 degC after 5 days; assay type: functional, organism-based
Monilinia laxa [5] = assay: Fungicidal activity against Monilinia laxa isolate MLP4 assessed as reduction in mycelial growth rate at 1 to 10 ug/ml at 31 degC after 5 days; assay type: functional, organism-based
Monilinia laxa [6] = assay: Fungicidal activity against Monilinia laxa isolate MLG3 assessed as reduction in mycelial growth rate at 25 degC after 4 days; assay type: functional, organism-based; conditions: isolate MLG3, 96 h
Monilinia laxa [7] = assay: Fungicidal activity against Monilinia laxa isolate MLP4 assessed as reduction in mycelial growth rate at 25 degC after 4 days; assay type: functional, organism-based; conditions: isolate MLP4, 96 h
Monilinia laxa [8] = assay: Fungicidal activity against Monilinia laxa isolate MLBO5 assessed as mean mycelial colony diameter at 25 degC after 4 days; assay type: functional
Monilinia laxa [9] = assay: Fungicidal activity against Monilinia laxa isolate MLK8 assessed as reduction in mycelial growth rate at 1 to 10 ug/ml at 31 degC after 5 days; assay type: functional, organism-based
Monilinia laxa [10] = assay: Fungicidal activity against Monilinia laxa isolate MLK5 assessed as reduction in mycelial growth rate at 1 to 10 ug/ml at 28 degC after 8 days; assay type: functional, organism-based
Monilinia laxa [11] = assay: Fungicidal activity against Monilinia laxa isolate MLBO2 assessed as reduction in mycelial growth rate at 1 to 10 ug/ml at 31 degC after 5 days; assay type: functional, organism-based
Monilinia laxa [12] = assay: Fungicidal activity against Monilinia laxa isolate MLK4 assessed as reduction in mycelial growth rate at 1 to 10 ug/ml at 31 degC after 5 days; assay type: functional, organism-based
Monilinia laxa [13] = assay: Fungicidal activity against Monilinia laxa isolate MLC6 assessed as reduction in mycelial growth rate at 25 degC after 4 days; assay type: functional, organism-based; conditions: isolate MLC6, 96 h
Monilinia laxa [14] = assay: Fungicidal activity against Monilinia laxa isolate MLB1 assessed as reduction in mycelial growth rate at 1 to 10 ug/ml at 28 degC after 8 days; assay type: functional, organism-based
Monilinia laxa [15] = assay: Fungicidal activity against Monilinia laxa isolate MLA1 assessed as mean number of conidia produced in the colony at 25 degC after 12 days by haemocytometer; assay type: functional
Monilinia laxa [16] = assay: Fungicidal activity against Monilinia laxa isolate MLNS2 assessed as reduction in mycelial growth rate at 1 to 10 ug/ml at 31 degC after 5 days; assay type: functional, organism-based
Monilinia laxa [17] = assay: Fungicidal activity against Monilinia laxa isolate MLG1 assessed as mycelial growth at 1 ug/ml at 25 degC after 4 days; assay type: functional
Monilinia laxa [18] = assay: Fungicidal activity against Monilinia laxa isolate KX2 assessed as reduction in mycelial growth rate at 1 to 10 ug/ml at 31 degC after 5 days; assay type: functional, organism-based
Monilinia laxa [19] = assay: Fungicidal activity against Monilinia laxa isolate MLK4A assessed as reduction in mycelial growth rate at 25 degC after 4 days; assay type: functional, organism-based; conditions: 96 h
Monilinia laxa [20] = assay: Fungicidal activity against Monilinia laxa isolate MLK2 assessed as reduction in mycelial growth rate at 1 to 10 ug/ml at 28 degC after 8 days; assay type: functional, organism-based
Monilinia laxa [21] = assay: Fungicidal activity against Monilinia laxa isolate MLBO1 assessed as reduction in mycelial growth rate at 25 degC after 4 days; assay type: functional, organism-based; conditions: isolate MLBO1, 96 h
Monilinia laxa [22] = assay: Fungicidal activity against Monilinia laxa isolate MLBO8 assessed as reduction in mycelial growth rate at 1 to 10 ug/ml at 31 degC after 5 days; assay type: functional, organism-based

COC(=O)Nc1nc2ccccc2[nH]1 [CARBENDAZIM]
EC50 (Monilinia laxa [1]): 0.07 µg/mL (≈ 0.366 µM)
Activity (Monilinia laxa [2]): 27.1 mm
Activity (Monilinia laxa [3]): 4.4 /cm2
inhibition (Monilinia laxa [4]): Active
inhibition (Monilinia laxa [5]): Active
EC50 (Monilinia laxa [6]): 0.08 µg/mL (≈ 0.418 µM)
EC50 (Monilinia laxa [7]): > 50 µg/mL
Activity (Monilinia laxa [8]): 29.5 mm
inhibition (Monilinia laxa [9]): Active
inhibition (Monilinia laxa [10]): inactive
inhibition (Monilinia laxa [11]): Active
inhibition (Monilinia laxa [12]): Active
EC50 (Monilinia laxa [13]): 0.12 µg/mL (≈ 0.628 µM)
inhibition (Monilinia laxa [14]): inactive
Activity (Monilinia laxa [15]): 5 /cm2
inhibition (Monilinia laxa [16]): Active
Activity (Monilinia laxa [17]): 0%
inhibition (Monilinia laxa [18]): Active
EC50 (Monilinia laxa [19]): 0.12 µg/mL (≈ 0.628 µM)
inhibition (Monilinia laxa [20]): inactive
EC50 (Monilinia laxa [21]): 0.11 µg/mL (≈ 0.575 µM)
inhibition (Monilinia laxa [22]): Active
